One assay concerns Ab17978. The experiment in a line: MIC, microdilution broth method. In kind it is cell-based.
The subject of another assay is EC12923. The experiment in a line: MIC, microdilution broth method. In kind it is cell-based. A general note: Dilution methods test growth across graded concentrations, often in twofold steps.
The next assay has as its system VSE775. The experiment in a line: MIC, microdilution broth method. In kind it is cell-based, Enterococcus faecalis. More on the design: MIC, VSE775: unit not given beside the values.
The subject of assay [1] is multidrug resistant strains. The experiment in a line: Reserpine growth assay in several multidrug resistant strains (FIG. 27). Type of assay: cell-based. The conditions noted are these: compared to ML-83-009 or levofloxacin.
Description: Reserpine was added at a final concentration of 10 μg/mL (made up at 40 μg/mL in TSB, 50 μL per well). The bacteria were added at an OD of 0.01 in TSB (100 μL/well). The plate was a normal clear plate as used for MICs. OD was read every 30 minutes for 9 hours (the literature states 7 hours, but this is strain-dependent).
Setting [2] is: ESKAPE panel, Gram-negative, in µg/mL.

Values after ≈ are worked out from the molar mass of the structure shown.

In general, MIC refers to the lowest concentration found to suppress growth. `Cc1cc(C)nc(N[C@@H]2CCN(c3c(F)cc4c(=O)c(C(=O)O)cn5c4c3OC[C@@H]5C)C2)n1` [KSN-BL7, (S)-10-((R)-3-((4,6-dimethylpyrimidin-2-yl)amino)pyrrolidin-1-yl)-9-fluoro-3-methyl-7-oxo-2,3-dihydro-7H-[1,4]oxazino[2,3,4-ij]quinoline-6-carboxylic acid]: the figures for the MIC in the assay with Ab17978 (Acinetobacter baumannii), in the assay with EC12923 (Escherichia coli) and against VSE775 (Enterococcus faecalis) were at most 0.125 µg/mL, 1 µg/mL (≈ 2.21 µM) and 0.06 µg/mL (≈ 0.132 µM), respectively. In the assay on Ab17978 (setting [2]), the “MIC, Ab17978” value is at most 0.125. Moreover, the “MIC, EC12923” value in the assay with EC12923 (setting [2]) amounted to 1. In addition, in the assay with VSE775 (ESKAPE panel, Gram-positive), the “MIC, VSE775” value came to 0.0625. The “efflux from the bacteria (reserpine growth assay)” value in assay [1] is reported as “reduced efflux”.
